According to the NIST ThermoML archive (doi:10.1021/je5009334):

Assay: xn = mol fraction of the nth substance listed
Settings: 101 kPa, Liquid; for speed of sound: Sing-around technique in a fixed-path interferometer; for mass density: Vibrating tube method

OCCc1ccccc1 [2-phenylethanol] + CCC(O)CO
Settings	mass density [kg/m3]	speed of sound [m/s]
298.15 K, x1 = 0.1	1000.43	1461.6
298.15 K, x1 = 0.2	1002.46	1471.1
298.15 K, x1 = 0.3	1004.33	1479.4
298.15 K, x1 = 0.4	1006.16	1487.8
298.15 K, x1 = 0.5	1007.9	1495.7
298.15 K, x1 = 0.6	1009.62	1502.9
298.15 K, x1 = 0.7	1011.27	1509.7
298.15 K, x1 = 0.8	1012.87	1515.6
298.15 K, x1 = 0.9	1014.52	1521.3
298.15 K, x1 = 1	1016.14	1526.1
303.15 K, x1 = 0.1	996.641	1446.7
303.15 K, x1 = 0.2	998.651	1456.2
303.15 K, x1 = 0.3	1000.5	1464.1
303.15 K, x1 = 0.4	1002.32	1472.3
303.15 K, x1 = 0.5	1004.07	1480
303.15 K, x1 = 0.6	1005.79	1487.1
303.15 K, x1 = 0.7	1007.45	1494.1
303.15 K, x1 = 0.8	1009.06	1499.7
303.15 K, x1 = 0.9	1010.73	1505.3
303.15 K, x1 = 1	1012.39	1510.5
308.15 K, x1 = 0.1	992.825	1431.8
308.15 K, x1 = 0.2	994.816	1441.2
308.15 K, x1 = 0.3	996.652	1448.9
308.15 K, x1 = 0.4	998.462	1456.9
308.15 K, x1 = 0.5	1000.2	1464.5
308.15 K, x1 = 0.6	1001.93	1471.4
308.15 K, x1 = 0.7	1003.61	1478.4
308.15 K, x1 = 0.8	1005.25	1483.8
308.15 K, x1 = 0.9	1006.92	1489.5
308.15 K, x1 = 1	1008.61	1494.7
313.15 K, x1 = 0.1	988.976	1417.1
313.15 K, x1 = 0.2	990.951	1426.2
313.15 K, x1 = 0.3	992.775	1433.8
313.15 K, x1 = 0.4	994.579	1441.5
313.15 K, x1 = 0.5	996.32	1449
313.15 K, x1 = 0.6	998.053	1455.8
313.15 K, x1 = 0.7	999.73	1462.3
313.15 K, x1 = 0.8	1001.39	1468.1
313.15 K, x1 = 0.9	1003.09	1473.8
313.15 K, x1 = 1	1004.75	1479.2
318.15 K, x1 = 0.1	985.093	1402.3
318.15 K, x1 = 0.2	987.058	1411.3
318.15 K, x1 = 0.3	988.872	1418.7
318.15 K, x1 = 0.4	990.674	1426.3
318.15 K, x1 = 0.5	992.412	1433.5
318.15 K, x1 = 0.6	994.121	1440.5
318.15 K, x1 = 0.7	995.794	1446.4
318.15 K, x1 = 0.8	997.515	1452.4
318.15 K, x1 = 0.9	999.245	1458.1
318.15 K, x1 = 1	1000.93	1463.2
323.15 K, x1 = 0.1	981.261	1388.2
323.15 K, x1 = 0.2	983.126	1396
323.15 K, x1 = 0.3	984.949	1403.8
323.15 K, x1 = 0.4	986.752	1411.3
323.15 K, x1 = 0.5	988.495	1418.6
323.15 K, x1 = 0.6	990.215	1425.2
323.15 K, x1 = 0.7	991.945	1431.3
323.15 K, x1 = 0.8	993.644	1437.1
323.15 K, x1 = 0.9	995.386	1442.8
323.15 K, x1 = 1	997.075	1447.7
